In ChEMBL document CHEMBL1135450, “Discovery of phenyl alanine derived ketoamides carrying benzoyl residues as novel calpain inhibitors” (Bioorg Med Chem Lett, 2002):
Where a SMILES comes first, the peptide text is derived from it. [ ]: non-standard residue; d: D form. The star is where a group is joined. ξ: configuration not given here. ξF = NC(Cc1ccccc1)C(=O)O; Cbz = O=C(OCc1ccccc1)*

Test system: not listed separately
Assay: Inhibition of calpain-mediated p60 c-Src degradation in human thrombocytes
Format: functional, cell-based

Row | IC50 [µM] | SMILES
1 | 0.7 | CC(C)[C@H](NC(=O)OCc1ccccc1)C(=O)NC(C=O)Cc1ccccc1 (stereo partly drawn) (Cbz-Val-[ξF]-aldehyde)
2 | 1.4 | NC(=O)C(=O)C(Cc1ccccc1)NC(=O)c1ccccc1/C=C/c1ccc2ccccc2c1 (stereo not given)

Biological target: Cathepsin B (Homo sapiens, UniProt P07858)
Assay: Inhibition of cathepsin B

Row | Ki [µM] | SMILES
3 | 0.099 | NC(=O)C(=O)C(Cc1ccccc1)NC(=O)c1ccccc1/C=C/c1ccc2ccccc2c1 (stereo not given)

Biological target: Procathepsin L (Homo sapiens, UniProt P07711)
Assay: The compound was evaluated for inhibition of cathepsin L

Sequence of Procathepsin L (P07711 whole entry): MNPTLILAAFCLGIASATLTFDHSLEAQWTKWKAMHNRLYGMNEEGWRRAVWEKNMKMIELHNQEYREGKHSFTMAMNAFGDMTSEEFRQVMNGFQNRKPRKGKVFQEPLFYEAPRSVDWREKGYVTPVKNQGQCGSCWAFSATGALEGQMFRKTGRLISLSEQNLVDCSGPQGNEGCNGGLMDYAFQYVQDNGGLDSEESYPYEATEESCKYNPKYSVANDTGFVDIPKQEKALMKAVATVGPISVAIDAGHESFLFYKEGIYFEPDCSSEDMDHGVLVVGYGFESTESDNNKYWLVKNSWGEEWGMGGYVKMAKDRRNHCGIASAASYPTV

Row | Ki [µM] | SMILES
4 | 6.1 | NC(=O)C(=O)C(Cc1ccccc1)NC(=O)c1ccccc1/C=C/c1ccc2ccccc2c1 (stereo not given)

Biological target: T1, Calpain-1 catalytic subunit (Homo sapiens, UniProt P07384)
T1 sequence (P07384 whole entry): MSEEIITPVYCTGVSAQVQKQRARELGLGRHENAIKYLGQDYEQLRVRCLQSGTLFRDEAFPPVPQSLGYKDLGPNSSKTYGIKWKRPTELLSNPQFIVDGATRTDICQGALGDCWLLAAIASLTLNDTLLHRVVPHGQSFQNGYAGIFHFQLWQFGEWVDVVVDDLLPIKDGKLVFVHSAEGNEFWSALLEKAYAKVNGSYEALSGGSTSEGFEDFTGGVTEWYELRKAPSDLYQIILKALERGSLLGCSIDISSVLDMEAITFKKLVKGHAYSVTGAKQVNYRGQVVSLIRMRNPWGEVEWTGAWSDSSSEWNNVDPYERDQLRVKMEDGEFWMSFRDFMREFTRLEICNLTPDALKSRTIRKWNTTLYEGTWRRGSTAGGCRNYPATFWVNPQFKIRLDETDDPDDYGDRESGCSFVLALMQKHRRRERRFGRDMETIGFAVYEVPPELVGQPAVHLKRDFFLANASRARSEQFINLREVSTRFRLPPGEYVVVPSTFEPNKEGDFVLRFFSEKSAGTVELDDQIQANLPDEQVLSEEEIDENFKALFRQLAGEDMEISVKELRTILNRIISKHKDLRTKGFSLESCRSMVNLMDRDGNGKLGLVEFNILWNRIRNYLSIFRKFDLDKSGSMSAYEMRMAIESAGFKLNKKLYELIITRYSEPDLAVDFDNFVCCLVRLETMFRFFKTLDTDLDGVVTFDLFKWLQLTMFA
Assay: Inhibition of calpain, using human mu-calpain isolated from erythrocytes and Suc-Leu-Tyr-AMC as the fluorogenic substrate
Format: cell-free

Row | Ki [µM] | SMILES
5 | 0.23 | O=CC(Cc1ccccc1)NC(=O)c1ccccc1C(=O)c1ccccc1 (stereo not given)
6 | 0.37 | O=CC(Cc1ccccc1)NC(=O)c1ccccc1Cc1ccccc1 (stereo not given)
7 | 1.08 | O=CC(Cc1ccccc1)NC(=O)c1ccccc1 (stereo not given)
8 | 0.14 | O=CC(Cc1ccccc1)NC(=O)c1ccccc1/C=C/c1ccccc1 (stereo not given)
9 | 0.04 | COc1ccc(/C=C/c2ccccc2C(=O)NC(C=O)Cc2ccccc2)cc1OC (stereo not given)
10 | 0.04 | NC(=O)C(=O)C(Cc1ccccc1)NC(=O)c1ccccc1-c1ccccc1 (stereo not given)
11 | 0.006 | NC(=O)C(=O)C(Cc1ccccc1)NC(=O)c1ccccc1/C=C/c1ccc2ccccc2c1 (stereo not given)
12 | 0.09 | O=CC(Cc1ccccc1)NC(=O)c1ccccc1-c1ccccc1 (stereo not given)
13 | 0.015 | O=CC(Cc1ccccc1)NC(=O)c1ccccc1/C=C/c1ccc2ccccc2c1 (stereo not given)
14 | 0.05 | O=CC(Cc1ccccc1)NC(=O)c1ccccc1OCc1ccc2ccccc2c1 (stereo not given)
15 | 0.28 | O=CC(Cc1ccccc1)NC(=O)c1ccccc1CCc1ccccc1 (stereo not given)
16 | 0.08 | COc1ccc(/C=C/c2ccccc2C(=O)NC(Cc2ccccc2)C(=O)C(N)=O)cc1OC (stereo not given)
17 | 0.2 | O=CC(Cc1ccccc1)NC(=O)c1ccccc1Cc1ccc2ccccc2c1 (stereo not given)
18 | 0.45 | O=CC(Cc1ccccc1)NC(=O)c1ccccc1C#Cc1ccccc1 (stereo not given)
19 | 0.45 | O=CC(Cc1ccccc1)NC(=O)c1ccccc1COc1ccccc1 (stereo not given)
20 | 0.05 | O=CC(Cc1ccccc1)NC(=O)c1ccccc1Oc1ccccc1 (stereo not given)
